From US20260061037A1, “BACILLUS SPECIES STRAIN EXPRESSING SUPEROXIDE DISMUTASE, BACILLUS SPECIES STRAIN SPORE AND/OR SUPEROXIDE DISMUTASE, AND USE THEREOF FOR PREVENTING OR TREATING OF FIBROTIC DISEASE” (HLB GENEX, INC., priority 2022, published 2026)

Columns and labels:
[1] = test system: nonalcoholic steatohepatitis (NASH) STAM™ animal model; type: in vivo; settings: PO, QD, GF423 1×10^7 CFU, telmisartan 10 mg/kg
Description: C57BL/6J mice (14-day-pregnant female, 6-week-old male) (purchased from SLC, Japan) were maintained in a SPF facility with controlled temperature (23±3° C.), humidity (50±20%), lighting (12-hour artificial light/dark cycle; light cycle from 08:00 to 20:00), and air exchange.
NASH was induced in all groups except the normal group of 8 mice as follows: On the second day after birth, the male mice were injected subcutaneously once with 200 μg streptozotocin (STZ, purchased from Sigma-Aldrich) solution. […]
The 10-week-old mice with induced NASH were randomized to 9 groups, each containing 8 mice, based on their body weight on the day before the start of treatment. […] The NASH model mice were stratified by the body weight, and the standard deviation (SD) was calculated to minimize the difference in mean body weight between the groups. […]
(§1) The GF427-administered groups were administered once a day at five dose levels: 0.05×10^7 (lowest dose), 0.1×10^7 (low dose), 0.5×10^7 (middle dose), 1×10^7 (high dose), and 5×10^7 CFU (highest dose) per mouse. […] The animals were monitored daily for viability, clinical signs (lethargy, convulsion, respiratory distress), and behavior to observe whether there are any significant clinical signs of toxicity, coma, and death before and after administration of the test substance. […]

[2] = test system: nonalcoholic steatohepatitis (NASH) STAM™ animal model; type: in vivo
Description: (§2) NASH was induced in all groups except the normal group of 8 mice as follows: On the second day after birth, the male mice were injected subcutaneously once with 200 μg streptozotocin (STZ, purchased from Sigma-Aldrich) solution. After the mice reached 4 weeks of age, a solid high-fat diet (HFD, 57 kcal % fat, purchased from CLEA Japan, Inc., Cat #HFD32) was placed on a metal lid on top of the cage so that the mice access it ad libitum, thereby inducing NASH
The GF427-administered groups were administered once a day at five dose levels: 0.05×10^7 (lowest dose), 0.1×10^7 (low dose), 0.5×10^7 (middle dose), 1×10^7 (high dose), and 5×10^7 CFU (highest dose) per mouse. The GF423-administered group was administered once a day at a dose of 1×10^7 CFU per mouse. GF103 was administered once a day at a dose of 10 U per mouse. Telmisartan was administered once a day at a dose of 10 mg/kg. GF427, GF423, and GF103 were administered orally in the form of a vehicle at a dose of 100 μL, and telmisartan was administered orally in the form of being supplemented with reverse osmosis water (RO water) at a dose of 10 mL/kg. The normal and disease control groups were not subjected to any treatment before sacrifice, and were sacrificed at 13 weeks of age by exsanguination via direct cardiac puncture under isoflurane (purchased from Pfizer Inc.) anesthesia. The animals were monitored daily for viability, clinical signs (lethargy, convulsion, respiratory distress), and behavior to observe whether there are any significant clinical signs of toxicity, coma, and death before and after administration of the test substance. […] All animal care and experiments were conducted in accordance with laws and regulations related to animal welfare and management.
At sacrifice of the mice, the whole liver was collected and washed with cold saline. Photographs of the individual whole liver (parietal side and visceral side) were taken. Then, the liver weight was measured and the liver-to-body weight ratio was calculated. […]

[3] = test system: nonalcoholic steatohepatitis (NASH) STAM™ animal model; test: Plasma ALT level in NASH STAM model; type: in vivo, C57BL/6J mice; settings: PO, QD; GF423 1×10^7 CFU, GF103 10 U, telmisartan 10 mg/kg; vs disease control group
Description: as §2
as §1, with “mouse. The GF423-administered group was administered once a day at a dose of 1×10^7 CFU per mouse. GF103 was administered once a day at a dose of 10 U per mouse. Telmisartan was administered once a day at a dose of 10 mg/kg.” for “mouse.”
Plasma ALT level was measured using FUJI DRI-CHEM 7000 (purchased from Fujifilm Corporation). […]

[4] = test system: nonalcoholic steatohepatitis (NASH) STAM™ animal model; test: H&E staining of liver and NAFLD activity score in NASH STAM model; type: in vivo, C57BL/6J mice; settings: PO, QD; GF423 1×10^7 CFU, GF103 10 U, telmisartan 10 mg/kg; vs disease control group
Description: as §2
as §1, with “mouse. The GF423-administered group was administered once a day at a dose of 1×10^7 CFU per mouse. GF103 was administered once a day at a dose of 10 U per mouse. Telmisartan was administered once a day at a dose of 10 mg/kg.” for “mouse.”
The paraffin block of liver tissue prepared in Example 7.3 was sectioned using a rotary microtome (purchased from Leica Microsystems). […] The tissue slides were subjected to H&E staining and evaluated by the investigator. […]

[5] = test system: nonalcoholic steatohepatitis (NASH) STAM™ animal model; test: Sirius red staining of liver (fibrosis area) in NASH STAM model; type: in vivo, C57BL/6J mice; settings: PO, QD; GF423 1×10^7 CFU, GF103 10 U, telmisartan 10 mg/kg; vs disease control group
Description: as §2
as §1, with “(highest dose) per mouse. The GF423-administered group was administered once a day at a dose of 1×10^7 CFU per mouse.” for “(highest dose) per mouse.”
For quantitative analysis of fibrosis area, bright field images of the Sirius red-stained section were captured around the central vein using a digital camera (DFC295, purchased from Leica) at 200-fold magnification, and the positive areas in 5 fields/section were measured using ImageJ software (National Institute of Health, USA). […]

[6] = PO, QD, weeks 10 to 13, GF423 1×10^7 CFU, GF103 10 U, telmisartan 10 mg/kg, vs disease control group

## CCCc1nc2c(C)cc(-c3nc4ccccc4n3C)cc2n1Cc1ccc(-c2ccccc2C(=O)O)cc1 [telmisartan, Telmisartan]
[1]; weeks 10 to 13, GF427 0.05-5×10^7 CFU, GF103 10 U, vs disease control group
  mean body weight during the treatment period: significantly lower than that of the disease control group from day 17 to day 21
[1]; 8 mice per group
  mice found dead or euthanized before day 21: two of the eight mice were euthanized
[2]; [6]
  mean liver weight: significant decrease in mean liver weight
  mean liver-to-body weight ratio: tended to show a decrease in mean liver-to-body weight ratio
[2]; mouse, in vivo, po
  daily mean body weight on the day of sacrifice: significant decrease in daily mean body weight on the day of sacrifice
[3]
  plasma ALT level: tended to show a decrease in plasma ALT level
[4]
  NAFLD activity score (NAS): significant decrease in NAS
[5]
  fibrosis area (Sirius red-positive area): tended to decrease
